Source: patent publication US9920088B2, “Triterpene derivative and its anti-influenza use” (Peking University, priority 2012, dated 2018)
Entries after “also recorded” stand apart in the source; their conditions may differ. Read-outs that look alike come from different tables or passages of the source.

Assays:
[1] = tested on: influenza virus A/WSN/33(H1N1); test: Cytopathic effect (CPE) inhibition assay, WSN virus in MDCK cells; assay type: cell-based; conditions: for EC50: H1N1|WSN, 48 h; for Viral Infectivity (%): WSN MOI=1, 48 h, lower = better inhibition; for anti-influenza virus activity: WSN, CPE
MDCK cells = conditions: dog, 48 h; for Cell viability(%) / Cell viability (%): 50 μM
in vitro [2] = conditions: human
in vitro [3] = conditions: dog
in vitro [4] = conditions: human; remark: listed apart in the source
[5] = tested on: A/Puerto Rico/8/34 (H1N1); test: CPE reduction assay, PR/8 (H1N1); assay type: cell-based; conditions: Influenza A virus
[6] = tested on: A/JiangXi-DongHu/312/2006 (H3N2); test: microbe, parasite or virus in culture; assay type: cell-based, influenza A virus
B/ShenZhen/155/2005 = test: CPE reduction assay, B/SZ/155; assay type: cell-based; conditions: Influenza B virus, B/SZ/155, CPE
A/WSN/33 (H1N1) virus = test: Plaque inhibition assay; assay type: cell-based, influenza A virus; conditions: for Plaque number: 0 μM = 100
A/WSN/33(H1N1) virus = test: Time-of-addition experiment (viral NP by Western blotting); assay type: cell-based, influenza A virus
[7] = tested on: H1N1 pseudotype virus (A/WSN/33 (H1N1) HA/NA); test: microbe, parasite or virus in culture; assay type: cell-based; conditions: Influenza A virus, H1N1pp, DMSO set to zero, read-out: inhibition rate
[8] = tested on: H5N1 pseudotype virus (A/VietNam/1203/2004 (H5N1) HA/NA); test: microbe, parasite or virus in culture; assay type: cell-based; conditions: Influenza A virus, H5N1, read-out: inhibition rate
VSV pseudotype virus = test: microbe, parasite or virus in culture; assay type: cell-based; conditions: Vesicular stomatitis virus, read-out: inhibition rate
[9] = target: influenza virus (WSN strain) hemagglutinin protein (HA) (Influenza A virus, UniProt P03454); test: Hemagglutination inhibition (HI) assay; conditions: chicken erythrocytes
[10] = tested on: different influenza viruses; test: CPE reduction assays on different influenza viruses; assay type: cell-based, influenza A virus and influenza B virus; conditions: for inhibition effect on different influenza viruses: PR/8, LN/1109, JX/312, HN/1222, B/SZ/155
HIV = conditions: reported by European researchers; cited from earlier work
[11] = Cytotoxicity (CellTiter-Glo), MDCK cells; conditions: dog
[12] = PR/8 (H1N1), CPE, read-out: EC50

Sequence of influenza virus (WSN strain) hemagglutinin protein (HA) (P03454 18-342 limits assumed): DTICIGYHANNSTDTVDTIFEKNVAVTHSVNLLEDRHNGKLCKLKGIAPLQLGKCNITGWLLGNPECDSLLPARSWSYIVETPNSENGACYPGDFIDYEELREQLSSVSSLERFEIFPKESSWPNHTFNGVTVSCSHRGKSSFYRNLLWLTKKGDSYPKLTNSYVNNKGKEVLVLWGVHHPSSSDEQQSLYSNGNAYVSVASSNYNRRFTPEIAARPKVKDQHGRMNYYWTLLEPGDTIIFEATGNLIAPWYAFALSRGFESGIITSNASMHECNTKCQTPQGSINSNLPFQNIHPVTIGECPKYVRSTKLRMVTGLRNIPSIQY
Sequence of influenza virus (WSN strain) hemagglutinin protein (HA) (P03454 344-565 partner limits assumed): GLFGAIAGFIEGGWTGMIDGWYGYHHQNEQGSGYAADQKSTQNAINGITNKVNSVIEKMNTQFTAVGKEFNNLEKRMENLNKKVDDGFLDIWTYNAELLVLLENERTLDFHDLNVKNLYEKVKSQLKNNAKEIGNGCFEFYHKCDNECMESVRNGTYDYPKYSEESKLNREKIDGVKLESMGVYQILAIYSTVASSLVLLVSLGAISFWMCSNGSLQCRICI

SMILES | EC50 ([1]; MDCK) | CC50 at 48 h (in vitro [2]) | CC50 at 48 h (in vitro [3]) | CC50 at 48 h (in vitro [4]) | EC50 [5, 12] | EC50 ([6]; Influenza A virus, H3N2) | EC50 (B/ShenZhen/155/2005) | Viral Infectivity (%) ([1]; Table 8, 50 μM) | anti-influenza virus activity ([1]; 50 μM) | inhibition effect on different influenza viruses [10] | Cell viability (%) (MDCK cells) | other results
CC(=O)OCC1O[C@H](O[C@H]2C(COC(C)=O)O[C@H](OC(=O)[C@]34CCC(C)(C)C[C@H]3C3=CC[C@@H]5[C@@]6(C)CC[C@H](O)C(C)(C)[C@@H]6CC[C@@]5(C)[C@]3(C)CC4O)C(OC(C)=O)C2OC(C)=O)C(OC(C)=O)C(OC(C)=O)[C@@H]1OC(C)=O (stereo partly drawn) [Compound Q10, 3β,16α-dihydroxy-olean-12-en-28-oic acid-28-O-(hepta-O-acetyl-β-D-lactoside)] | > 100 µM | > 100 µM | > 100 µM | > 100 µM | – | – | – | – | – | – | – | Viral Infectivity (%) ([1]; Table 6, 50 μM): 100.6%; Cell viability(%) (MDCK cells): 98.1%
CCOC(=O)C1=C[C@@H](OC(CC)CC)[C@H](NC(C)=O)[C@@H](N)C1 [OSV-P, oseltamivir phosphate, reference compound] | 45.6 µM | > 100 µM | > 100 µM | > 100 µM | > 200 µM | 2.06 ± 0.58 µM | 91.1 ± 34.5 µM | – | – | – | – | CC50 (MDCK cells): > 200 µM
CC1(C)CC[C@]2(C(=O)O[C@H]3OC(CO)[C@@H](O)C(O)C3O)C(O)C[C@]3(C)C(=CC[C@@H]4[C@@]5(C)CC[C@H](O)C(C)(C)[C@@H]5CC[C@]43C)[C@@H]2C1 (stereo partly drawn) [Compound Q9, 3β,16α-dihydroxy-olean-12-en-28-oic acid-28-O-(β-D-galactoside)] | 48.7 µM | > 100 µM | > 100 µM | > 100 µM | 17.5 ± 0.43 µM | 16.9 ± 5.38 µM | 36.2 ± 7.21 µM | 21.1% | significant inhibitory effect on influenza virus; also recorded: significant inhibition activity against influenza virus | various extent of inhibition effect | 100.3% | inhibition at 50 µM ([1]; MDCK, Table 9, 50 μM, protective rate against cytopathy, read-out: IAV inhibition rate (%)): 53.6 ± 6.16%; Viral Infectivity (%) ([1]; Table 6, 50 μM): 21.1%; IC50 (A/WSN/33 (H1N1) virus; Influenza A virus, WSN, MDCK cells, read-out: IC50 (plaque formation reduction)): < 5 µM; Plaque number (A/WSN/33 (H1N1) virus; Q9 5 μM): 42.9 ± 5.8; Plaque number (A/WSN/33 (H1N1) virus; Q9 10 μM): 21.8 ± 2.5; Plaque number (A/WSN/33 (H1N1) virus; Q9 25 μM): 14.1 ± 1.7; Plaque number (A/WSN/33 (H1N1) virus; Q9 50 μM): 7.6 ± 2.5; Plaque number (A/WSN/33 (H1N1) virus; Q9 100 μM): 0; NP level reduction compared with the DMSO control (A/WSN/33(H1N1) virus; interval 0-2 h): ~62%; NP level reduction compared with the DMSO control (A/WSN/33(H1N1) virus; interval 0-10 h): around 75%; antiviral activity (A/WSN/33(H1N1) virus; intervals 2-5, 5-8, and 8-10 h): no antiviral activity was detected; stage of viral lifecycle acted on (A/WSN/33(H1N1) virus; time-of-addition): acted on the entry step of influenza virus into cells; also recorded: effective at the early stage (0-2 h) of the viral lifecycle; inhibition at 50 µM [7]: 61.9%; inhibition at 50 µM [8]: 16.8%; inhibition at 50 µM (VSV pseudotype virus): 3.8%; effect on binding of viruses to cellular receptors [9]: interfered the binding of viruses to cellular receptors; CC50 (MDCK cells): > 200 µM; Cell viability(%) (MDCK cells): 89%
CC1(C)CC[C@]2(C(=O)O)CC[C@]3(C)C(=CC[C@@H]4[C@@]5(C)C[C@@H](O)[C@H](O)C(C)(C)[C@@H]5CC[C@]43C)[C@@H]2C1 [hawthorn acid] | – | – | – | – | – | – | – | – | – | – | – | inhibition rate of spread of HIV in the body (HIV): up to 80%
NC(=O)c1ncn([C@@H]2O[C@H](CO)[C@@H](O)[C@H]2O)n1 [RBV, ribavirin, reference compound] | 42.7 µM | – | – | – | – | 4.19 ± 0.35 µM | 1.32 ± 0.6 µM | – | – | – | – | EC50 [5]: 4.02 ± 1.27 µM
CC1(C)CC[C@@]2(C(=O)N[C@H]3OC(CO)[C@@H](O)C(O)C3O)C(C1)C1=CCC3[C@@]4(C)CC[C@H](O)C(C)(C)C4CC[C@@]3(C)[C@]1(C)C[C@H]2O (stereo partly drawn) [Compound Y2, 3β,16α-dihydroxy-olean-12-en-28-oic acid-28-N-(β-D-galactoside)] | – | – | > 100 µM | – | 6.22 ± 0.83 µM | – | > 22.2 µM | 17.5% | significant anti-influenza virus activity | various extent of inhibition effect | 105.0% | EC50 [6]: > 22.2 µM
NC12CC3CC(CC(C3)C1)C2 [Amantadine, amantadine, reference compound] | – | – | – | – | 7.41 ± 0.21 µM | 8.58 ± 1.65 µM | > 83.2 µM | – | – | – | – | CC50 at 48 h [11]: > 200 µM
CC(=O)OCC1O[C@H](NC(=O)[C@]23CCC(C)(C)CC2C2=CCC4[C@@]5(C)CC[C@H](O)C(C)(C)C5CC[C@@]4(C)[C@]2(C)CC3)C(OC(C)=O)C(OC(C)=O)[C@@H]1OC(C)=O (stereo partly drawn) [Compound Y5, 3β-hydroxy-olean-12-en-28-oic acid-28-N-(2,3,4,6-tetra-O-acetyl-β-D-galactoside)] | – | – | > 100 µM | – | 7.41 ± 0.05 µM | 2.72 ± 0.35 µM | 2.8 ± 0.74 µM | 9.0% | significant anti-influenza virus activity; also recorded: most significant anti-influenza virus activity | various extent of inhibition effect | 81.7% | EC50 ([10]; strain not specified): < 2 µM
